The text below walks through data of patent US20130245064A1, “NOVEL NEUROTRYPSIN INHIBITORS” (priority 2010, published 2013).

The structures appear in SMILES notation. Where two headings read alike, the source gives them in different places. Where only a bound is given, the exact number is not on record here.

Data set [1] addresses T1, Plasmin (Homo sapiens, UniProt P00747).
T1 construct: purchased American diagnostic
Put plainly: Determination of IC50 for various proteases: plasmin. The data set is classed as biochemical. The note with it: plasmin 8 nM, substrate S-2288 0.5 mM; Mean ± SD. The method, then: (§1) A 6 mM solution of the test compound in DMSO was prepared. In a V-bottom micro plate the 6 mM compound solution was diluted 6 times in DMSO to obtain a concentration row with the following concentrations: 6 mM, 1.8 mM, 540 μM, 162 μM, 48.8 μM, 14.4 μM, and 4 μM. From this DMSO master plate 1:20 dilutions in 10 mM MOPS pH 8.3 were prepared to obtain solutions of 300, 90, 27, 8.1, 2.44, 0.72 and 0.22 μM in MOPS buffer and 5% DMSO.
(§2) 100 μl of this solution were pipetted into a flat bottom 96 well microplate and placed into a Tecan infinite 200 plate reader. Before measurement, 50 μl of protease solution and, subsequently 50 μl substrate solution were added by the machine. The liberation of free para nitroanilide was detected at 405 nm. The protease solution was freshly prepared by diluting to the desired concentration from a stock solution in 60 mM MOPS; 600 mM NaCl; 20 mM CaCl2; 10% DMSO; 0.4% PEG 6000 pH 8.3. The substrate solution was prepared by dissolving the solid substrate in an adequate amount of water to get the desired concentrations. The used protease and substrate solutions are given below:
(§3) All enzymes except trypsin were from human origin (American diagnostic). Trypsin was hog trypsin (Sigma Aldrich). Substrates were purchased from Chromogenix. […]

Data set [2] concerns the target T2, tPA (2 chain) (Homo sapiens, UniProt P00750).
T2 construct: tPA (2 chain); purchased American diagnostic
The data set is described as follows: Determination of IC50 for various proteases: tPA. The data set is classed as biochemical. The conditions noted are these: tPA (2 chain) 40 nM, substrate S-2288 0.5 mM; Mean ± SD. The protocol: as §1, §2, §3

The nature of data set [3]: Effect of compound on body weight in mice. It counts as in vivo, C57/BL6 mice. The note with it: 25 mg/kg, three subcutaneous injections. The protocol: Adult (P50) C57/BL6 mice from Charles River were used for the experiments. All animal experiments are performed in accordance with international guidelines for proper conduct of animal experiment under jurisdiction of the Swiss law (Permit number ZH-18/2008). For every mouse in the experiment the well-being during the interventions is documented in a score sheet.
The mice are housed under optimal hygienic conditions (OHB) with controlled air-conditioning and lighting (temperature: 20-24° C., humidity: 55-65%, day/night cycle: 12 h/12 h, lights on 7 a.m.). Individually ventilated cages of type II, L (530 cm^2 floor space) with standard litter are used. A maximum of 6 mice is kept in each cage. Mice are fed with standard rodent chow (Extrudat, KLIBA NAFAG) ad libitum and have free access to drinking water. Animal colony is managed and maintained at BioSupport, Schlieren.
Three adult mice were treated with 2.5 ml/kg of a 10 mg/ml solution of the compound of Example 1 in 100% DMSO. This corresponds to a dose of 25 mg/kg active ingredient. As vehicle control, 3 mice were treated with 2.5 ml/kg of 100% DMSO. Each mouse received three subcutaneous injections. Between dose 1 and dose 2 there were 8 h, between dose 2 and dose 3 16 h. 5 h after the last injection the mice were euthanatized with CO2. […]

Data set [4] addresses T3, human neurotrypsin (Homo sapiens, UniProt P56730).
T3 sequence (P56730 21-875): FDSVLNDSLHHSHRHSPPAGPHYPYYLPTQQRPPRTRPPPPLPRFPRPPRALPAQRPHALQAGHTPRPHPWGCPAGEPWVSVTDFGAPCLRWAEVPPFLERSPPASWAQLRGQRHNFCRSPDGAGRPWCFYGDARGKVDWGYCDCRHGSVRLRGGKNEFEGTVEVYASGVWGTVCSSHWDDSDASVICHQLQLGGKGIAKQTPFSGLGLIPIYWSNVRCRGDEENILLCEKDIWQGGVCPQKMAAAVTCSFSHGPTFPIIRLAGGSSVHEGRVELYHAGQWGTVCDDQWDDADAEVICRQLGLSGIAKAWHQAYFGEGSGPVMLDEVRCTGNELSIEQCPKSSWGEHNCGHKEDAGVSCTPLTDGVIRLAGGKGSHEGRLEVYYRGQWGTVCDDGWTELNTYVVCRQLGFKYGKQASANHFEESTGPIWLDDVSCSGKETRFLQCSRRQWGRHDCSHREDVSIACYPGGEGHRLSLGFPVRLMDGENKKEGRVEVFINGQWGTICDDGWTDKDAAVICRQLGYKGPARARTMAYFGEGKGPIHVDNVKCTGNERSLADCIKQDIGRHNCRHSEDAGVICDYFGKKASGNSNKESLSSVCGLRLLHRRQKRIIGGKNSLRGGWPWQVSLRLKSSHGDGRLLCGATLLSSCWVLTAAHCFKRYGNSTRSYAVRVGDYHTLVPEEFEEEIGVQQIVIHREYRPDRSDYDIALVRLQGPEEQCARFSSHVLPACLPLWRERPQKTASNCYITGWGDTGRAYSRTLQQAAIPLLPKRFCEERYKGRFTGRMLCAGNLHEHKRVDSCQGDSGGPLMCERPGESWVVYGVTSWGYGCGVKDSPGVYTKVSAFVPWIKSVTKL
The data set is described as follows: Determination of IC50 for human neurotrypsin. It counts as biochemical. The protocol: Determination of IC50 for Human Neurotrypsin
Assessment of the potency of compounds of examples 1-14 in inhibiting the enzymatic activity of human neurotrypsin was performed according to the method described in patent application […]

The target of data set [5] is T4, uPA (Homo sapiens, UniProt P00749).
T4 construct: purchased American diagnostic
Put plainly: Determination of IC50 for various proteases: uPA. The data set is classed as biochemical. The note with it: uPA 40 nM, substrate S-2288 0.5 mM; Mean ± SD. The protocol: as §1, §2, §3

T2 sequence (P00750 311-562 limits assumed): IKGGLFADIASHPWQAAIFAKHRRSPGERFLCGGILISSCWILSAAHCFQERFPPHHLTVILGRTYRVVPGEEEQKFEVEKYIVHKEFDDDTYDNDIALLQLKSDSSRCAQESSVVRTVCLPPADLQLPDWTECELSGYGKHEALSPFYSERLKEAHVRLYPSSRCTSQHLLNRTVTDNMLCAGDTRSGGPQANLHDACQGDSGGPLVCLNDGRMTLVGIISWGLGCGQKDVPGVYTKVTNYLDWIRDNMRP
T2 sequence (P00750 36-310 partner limits assumed): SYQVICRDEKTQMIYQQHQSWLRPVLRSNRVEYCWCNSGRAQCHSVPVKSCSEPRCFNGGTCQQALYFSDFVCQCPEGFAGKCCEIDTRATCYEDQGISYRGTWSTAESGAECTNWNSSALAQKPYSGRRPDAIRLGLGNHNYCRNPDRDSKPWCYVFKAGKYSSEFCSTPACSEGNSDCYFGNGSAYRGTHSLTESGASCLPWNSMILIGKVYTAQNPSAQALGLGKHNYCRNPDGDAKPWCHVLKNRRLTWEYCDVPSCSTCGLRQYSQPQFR
T1 sequence (P00747 581-810 limits assumed): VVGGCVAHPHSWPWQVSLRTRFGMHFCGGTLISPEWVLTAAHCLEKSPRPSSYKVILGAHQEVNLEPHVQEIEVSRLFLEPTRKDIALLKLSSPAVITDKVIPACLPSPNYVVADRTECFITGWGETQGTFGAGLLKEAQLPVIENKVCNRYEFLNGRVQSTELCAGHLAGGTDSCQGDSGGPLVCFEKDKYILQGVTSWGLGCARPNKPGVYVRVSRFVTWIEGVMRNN
T1 sequence (P00747 97-580 partner limits assumed): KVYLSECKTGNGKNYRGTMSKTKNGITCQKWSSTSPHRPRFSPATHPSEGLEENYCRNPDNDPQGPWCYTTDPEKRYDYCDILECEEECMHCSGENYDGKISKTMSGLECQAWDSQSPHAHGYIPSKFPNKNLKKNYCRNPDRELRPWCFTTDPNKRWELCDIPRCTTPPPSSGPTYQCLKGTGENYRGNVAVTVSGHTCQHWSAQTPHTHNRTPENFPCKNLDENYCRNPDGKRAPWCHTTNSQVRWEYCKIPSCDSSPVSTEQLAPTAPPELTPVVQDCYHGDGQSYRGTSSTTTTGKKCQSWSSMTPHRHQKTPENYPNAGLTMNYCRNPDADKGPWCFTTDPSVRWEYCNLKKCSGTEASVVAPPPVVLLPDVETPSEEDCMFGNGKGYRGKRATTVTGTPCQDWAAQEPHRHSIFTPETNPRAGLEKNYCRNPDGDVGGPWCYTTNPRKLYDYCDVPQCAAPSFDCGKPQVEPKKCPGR

For orientation: IC50 means the concentration that inhibits the measured activity by half. On to `O=C(Nc1ccc(C(=O)Nc2ccc(Cl)cc2)c(O)c1)c1ccc(-c2nc3cc(Cl)c(Cl)cc3[nH]2)cc1` [Example 1, N-(4-Chlorophenyl)-4-(4-(5,6-dichloro-1H-benzo[d]imidazol-2-yl)benzamido)-2-hydroxybenzamide], for which the half-inhibitory concentration (IC50) in data set [1] is more than 150 µM; in data set [2], more than 150 µM; in data set [4] (Mean ± SD, read-out: IC50 Neurotrypsin), 470 ± 150 nM; in data set [4] (table of all 14 examples, read-out: Neurotrypsin IC50), 400 nM; in data set [5] it was more than 150 µM. For the same compound, in data set [3], the “Weight loss compared to the vehicle control” value is on record as “did not produce any increase in weight loss”.
